In the supplement of paper PMC11208160:

Assay: recombinant UMI read abundance after kanamycin selection (control-corrected) (log10(CPM+1)); higher = more efficient recombination; extreme values may be limits of the assay; sequences stand for … in AGTGCAGAGAAAATCGGCCAGTTTTCTCTGCCTGCAGTCCGCATGCCGTGGGACCCCTTGGGTTCTAACCTGTTGCCTAGATTTATGCAGCGGACTGCCTTTCTCCCAAAGTGATAAACCGG…AGGTTGGTTTCACT; site = the 11-nt donor
Procedure, shortened: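 Reported values are log10(CPM+1) from a pooled Escherichia coli screen of donor and donor-binding-loop pairs for the IS621 bridge recombinase. Selection used IPTG (0.07 mM) plus kanamycin, against unselected plating, each in two replicates. Recombinant UMIs were amplified across the donor–target junction, sequenced, converted to CPM, averaged over replicates and scaled by control-derived factors.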
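Further: IS621 bridge recombinase in Escherichia coli cells against a fixed T5 target plasmid.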

Sequence	recombinant UMI read abundance (log10)
GGTTAGACATGGACCGGTTTTCCCGGTAATCCGTATTTGCC (site GGCTAGACTGG)	1.32
GGTTAGACATGGACCGGTTTTCCCGGTAATCCGTATTTGCC (site GGGTAGACTGG)	1.27
GGTTAGACATGGACCGGTTTTCCCGGTAATCCGTATTTGCC (site GGTTAGACTGG)	1.9
GGTTAGTCATGGACCGGTTTTCCCGGTAATCCGTATTTGCC (site GGTTAGTCTGG)	2.06
GGTTCAACATGGACCGGTTTTCCCGGTAATCCGTATTTGTA (site GGTACAACTTA)	0.00935
GGTTCAACATGGACCGGTTTTCCCGGTAATCCGTATTTGTA (site GGTCCAACTTA)	0.262
GGTTCAACATGGACCGGTTTTCCCGGTAATCCGTATTTGTA (site GGTGCAACTTA)	0.00737
GGTTCAACATGGACCGGTTTTCCCGGTAATCCGTATTTGTA (site GGTTCAACTTA)	0.00797
GGTTCATCATGGACCGGTTTTCCCGGTAATCCGTATTTGCC (site GGTTCATCTGG)	1.07
GGTTCATCATGGACCGGTTTTCCCGGTAATCCGTATTTGCT (site CGATCATCTAG)	0
GGTTCATCATGGACCGGTTTTCCCGGTAATCCGTATTTGCT (site GGTTCATCTAG)	1.84
GGTTGTCCATGGACCGGTTTTCCCGGTAATCCGTATTTGGC (site GGTTGTCCTGC)	0
GGTTTGGCATGGACCGGTTTTCCCGGTAATCCGTATTTGCT (site AGTTTGGCTAG)	0.702
GGTTTGGCATGGACCGGTTTTCCCGGTAATCCGTATTTGCT (site CGTTTGGCTAG)	0
GGTTTGGCATGGACCGGTTTTCCCGGTAATCCGTATTTGCT (site GGTTTGGCTAG)	0
GGTTTGGCATGGACCGGTTTTCCCGGTAATCCGTATTTGCT (site TGTTTGGCTAG)	0.00406

Sequence	recombinant UMI read abundance (log10)
GTAAACGCATGGACCGGTTTTCCCGGTAATCCGTATTTGTT (site GTAAACGCTAA)	2.59
GTAACGCCATGGACCGGTTTTCCCGGTAATCCGTATTTGGT (site GTAACGCCTAC)	0.517
GTAAGTACATGGACCGGTTTTCCCGGTAATCCGTATTTGAC (site GTAAGTACTGT)	2.96
GTAAGTACATGGACCGGTTTTCCCGGTAATCCGTATTTGAC (site GTACGTACTGT)	0
GTAAGTACATGGACCGGTTTTCCCGGTAATCCGTATTTGAC (site GTAGGTACTGT)	0.255
GTAAGTACATGGACCGGTTTTCCCGGTAATCCGTATTTGAC (site GTATGTACTGT)	0.67
GTAATATCATGGACCGGTTTTCCCGGTAATCCGTATTTGCA (site GTAATATCTTG)	2.6
GTAATCACATGGACCGGTTTTCCCGGTAATCCGTATTTGCG (site GTAATCACTCG)	2.48
GTACGAGCATGGACCGGTTTTCCCGGTAATCCGTATTTGCA (site GTACGAGCTTG)	2.55
GTACGAGCATGGACCGGTTTTCCCGGTAATCCGTATTTGCA (site GTCCGAGCTTG)	0.87
GTACGAGCATGGACCGGTTTTCCCGGTAATCCGTATTTGCA (site GTGCGAGCTTG)	2.02
GTACGAGCATGGACCGGTTTTCCCGGTAATCCGTATTTGCA (site GTTCGAGCTTG)	0.659
GTACTAACATGGACCGGTTTTCCCGGTAATCCGTATTTGGA (site ATACTAACTTC)	0.569
GTACTAACATGGACCGGTTTTCCCGGTAATCCGTATTTGGA (site CTACTAACTTC)	0.455
GTACTAACATGGACCGGTTTTCCCGGTAATCCGTATTTGGA (site GTACTAACTTC)	1.29
GTACTAACATGGACCGGTTTTCCCGGTAATCCGTATTTGGA (site TTACTAACTTC)	0.593
